Four sequences from patent EP4700040A1, “PEPTIDE AND LUMINESCENT COMPLEX CONTAINING SAME” (Shenzhen Loggene Life Science & Technology Co., Ltd., priority 2023, dated 2024) can be followed below.

Holding throughout (type): biochemical, human
In experiment [1] the test system is PCT. The experiment can be described thus: Luciferase dual-antibody complementary activation assay for PCT detection, clone supernatants, retest with CTZ-h (Example 1). Particulars: for Signal-to-noise ratio: RLU antigen+/RLU antigen-, MBP-PCT 3.3 ng/ml, CTZ-h; for PCT+: luminescence signal value with MBP-PCT 3.3 ng/ml, large subunit-rSCFV5 50 nM, supernatant; for PCT+ / PCT-: retest CTZ-h 25 µM, read after 60 s; for PCT-: luminescence signal value, background control PBSAD without PCT. The protocol:
In order to improve the signal-to-noise ratio and complementary activity of the luciferase dual-antibody complementary activation assay, a series of complementary luciferase small subunits were prepared in this example. Large subunit-rSCFV5 fusion protein (SEQ ID NO: 87) was kept unchanged, and the small subunit sequence of the rSCFV18-small subunit P114 fusion protein (SEQ ID NO: 88) was modified by semi-randomization to prepare rSCFV18-small subunit mutant fusion proteins. Based on the sequence of small subunit P114, and with reference to the 3D structure of complementary luciferase, computer-aided sequence design was employed to generate a library with a theoretical diversity of 2.49*10^6. Primers were designed for PCR amplification using the plasmid pComb3x of rSCFV18-small subunit P114 fusion protein as a template. Subsequently, an expression vector library was constructed by means of restriction digestion and ligation (SfiI, NheI), and a semi-random amino acid mutation library was introduced into the small subunit position and transformed into HB2151 competent cells, yielding a library capacity of 7.6*10^9. The 100 plates were spread, and 9,500 single clones were picked and inoculated into 600 µL of 2YTA medium, followed by incubation at 37°C with shaking at 250 rpm for 2 h. When the bacterial density reached approximately OD600 = 0.6~1.0, IPTG was then added to a final concentration of 1 mM, and the culture was further incubated at 30°C with shaking at 250 rpm for 20 h. The next day, the bacteria were collected by centrifugation at 4°C, 4,500g for 10min. The supernatant was discarded, and the precipitate was resuspended with 200µl of PBS containing polymyxin B at a final concentration of 20,000 u/ml. The suspension was incubated at room temperature with shaking at 100rpm for 1h, and then centrifuged at 4500g for 10min, and the supernatant was used for the test.
Test Methods: • (1) The concentration of large subunit-rSCFV5 fusion protein was diluted to 50 nM, and 15 µl was added per well; • (2) MBP-PCT fusion protein was diluted to 3.3 ng/ml with PBSAD, and 15 µl was added per well. The background control was PBSAD, and 10 µl was added per well; • (3) HB2151 strain containing expression plasmids with different small subunit were induced by 1 mM of IPTG at 30°C overnight, then treated with polymyxin B for 1.5 h, and centrifuged to collect the supernatant, and 2.5 µl supernatant was added per well; • (4) The above three components were slightly mixed, incubated at 37°C for 7 min, and Obuffer 6.37-3 containing Furimazine at a concentration of 25 µM was added, and after 80 s, the luminescence signal value was detected using a bioluminescence detector; and • (5) Clones with RLU higher than 10,000 and a signal-to-noise ratio (RLU antigen+/RLU antigen-) higher than that of the rSCFV18-small subunit P114 fusion protein were selected for retesting. The substrate was replaced with CTZ-h for retesting. Obuffer 6.37-3 containing CTZ-h at a concentration of 25 µM was added, and after 60 s, the luminescence signal value was detected using a bioluminescence detector.

In experiment [2] the test system is PCT. The experiment can be described thus: Complementation of purified rSCFV18-small subunit mutant fusion protein with large subunit-rSCFV5 fusion protein, PCT gradient (Example 2). Conditions: for luminescence value: CTZ-h 25 µM, 20 s; for Signal-to-noise ratio at 1000 pg/ml: PCT 1000 pg/ml versus 0. The method, then: Protein expression and purification of small subunit mutants: The strains containing plasmids of different small subunits inTable 2, prepared in Example 1, were inoculated into 200ml of 2YTA medium and cultured at 37°C with shaking at 250 rpm for about 3h. When the OD600 reached 1.0, IPTG was added to a final concentration of 1mM, and the culture was further incubated at 30°C with shaking at 250rpm for 20h. The culture were centrifuged at 5,000g for 10min, and the precipitate was resuspended with 10ml of PBS, added with polymyxin B to 20,000u/ml. The suspension was inverted and mixed at room temperature for 1h, and centrifuged at 10,000g to collect the supernatant. The rSCFV18-small subunit mutant fusion protein was purified according to the standard procedure for his-tag protein purification using Ni-NTA resin.
In the same tube, the large subunit-rSCFV5 fusion protein was diluted with PBSA to 50 nM; rSCFV18-small subunit mutant fusion protein was diluted to 90 nM, mixed well, and then 22 µl was added per well; the MBP-PCT fusion protein was diluted in 3-fold gradient with PBSAD (in pg/ml), with 8 gradients in total, 10µl was added per well, and the background control was PBSAD and 10 µl was added per well; the plate was mixed with slight shaking and incubated at 37°C for 6 min, 50 µl of Obuffer 6.37-3 containing 25 µM of CTZ-h then was added, and after 20 s, the luminescence value was detected.

In experiment [3] the test system is PCT. The experiment can be described thus: Signal-to-noise ratio and linear range for PCT detection, purified fusion proteins (Example 3). Particulars: for Signal-to-noise ratio at 1000 pg/ml: large subunit 100 nM, small subunit fusion 180 nM, CTZ-h 25 µM, 140 s; for signal-to-noise ratios in luciferase dual-antibody complementary activation for PCT detection: statement in words on Table 3 and Figure 2. Set-up: key to luminescence value: luminescence normalized against the background value. The protocol: Test Methods: • (1) MBP-PCT protein was diluted with PBSAD in 10-fold gradient starting from 100 ng/ml, with 8 gradients in total, and 10 µl was added per well; • (2) The large subunit-SCFV5 fusion protein was diluted with PBSA to 100 nM, and 10 µl was added per well; • (3) Different rSCFV18-small subunit mutant fusion proteins were diluted with PBSA to 180 nM, and 10 µl of each was added per well; • (4) The plate was mixed slightly and incubated at 37°C for 10 min; and • (5) 50 µl of Obuffer 6.37-3 containing 25 µM of CTZ-h was added, and after 140 s, the luminescence value was detected. The results are shown after normalization against the background value.

Experiment [4] concerns PCT. The experiment is described as above. Set-up: key: luminescence normalized against the background value. Particulars: PCT 3.3 (pg/ml); normalized against the background value.
Where [5] appears, read: PCT 0 pg/ml (background control PBSAD).
The mark [6] stands for this setting: PCT 1000 pg/ml, large subunit 50 nM, small subunit fusion 90 nM.
Where [7] appears, read: PCT 100 (pg/ml), normalized against the background value.
[8] abbreviates: PCT 1000 (pg/ml), normalized against the background value.
[9] abbreviates: PCT 10000 (pg/ml), normalized against the background value.
Setting [10] is: PCT 100000 (pg/ml), normalized against the background value.

For the sequence VEGWRLHEKIS [RA116], the Signal-to-noise ratio in the experiment with PCT [1] was 45.5. In the experiment on PCT [1], the “PCT+” value is listed as 55957. In the experiment with PCT [1], this sequence had a PCT- of 1204. Also, the luminescence value in the experiment on PCT [2] (setting [5]) is recorded as 362; in the experiment on PCT [2] (PCT 1.37 pg/ml), 406; with PCT [2] (PCT 4.12 pg/ml) it was 473; in the experiment on PCT [2] (PCT 12.35 pg/ml) it was 602; in the experiment with PCT [2] (PCT 37.04 pg/ml), 1212; in the experiment on PCT [2] (PCT 111.1 pg/ml), 2700. In addition, the luminescence value in the experiment on PCT [2] (PCT 333.3 pg/ml) stood at 7341; in the experiment with PCT [2] (setting [6]), 20492; with PCT [3] (PCT 0, background, normalized), 5000; in the experiment on PCT [3] (setting [7]), 11673; with PCT [3] (setting [8]), 69976; in the experiment with PCT [3] (setting [9]), 515360. Also, the luminescence value in the experiment on PCT [3] (setting [10]) is reported as 1784513; with PCT [4], 5301. The “Signal-to-noise ratio at 1000 pg/ml” value in the experiment on PCT [2] came out at 56.6; with PCT [3] it was 14.0. Further, the “signal-to-noise ratios in luciferase dual-antibody complementary activation for PCT detection” value (shortened to “signal-to-noise ratios”) in the experiment with PCT [3] is recorded as “higher signal-to-noise ratios”.
Take VEGYRLFDKKW [RB239]: in the experiment with PCT [1], the Signal-to-noise ratio amounted to 67.7. Also, the “PCT+” value in the experiment on PCT [1] turned out to be 31936. In the experiment with PCT [1], this sequence displayed a PCT- of 465. The luminescence value with PCT [2] (setting [5]) is on record as 288; with PCT [2] (PCT 1.37 pg/ml), 301; in the experiment with PCT [2] (PCT 4.12 pg/ml), 332; in the experiment on PCT [2] (PCT 12.35 pg/ml), 407; in the experiment on PCT [2] (PCT 37.04 pg/ml) it was 590; in the experiment with PCT [2] (PCT 111.1 pg/ml), 1318. In addition, the luminescence value with PCT [2] (PCT 333.3 pg/ml) amounted to 3364; in the experiment with PCT [2] (setting [6]), 8952; in the experiment with PCT [3] (PCT 0, background, normalized), 5000; in the experiment on PCT [3] (setting [7]) it was 11004; with PCT [3] (setting [8]) it was 57648; in the experiment with PCT [3] (setting [9]), 466004. Further, the luminescence value in the experiment on PCT [3] (setting [10]) is 2167580; with PCT [4], 5622. The “Signal-to-noise ratio at 1000 pg/ml” value with PCT [2] turned out to be 31.1; in the experiment on PCT [3], 11.5. Also, the “signal-to-noise ratios” value in the experiment on PCT [3] is listed as “higher signal-to-noise ratios”.
In the case of VEGYRLFDRKL [RB135], the Signal-to-noise ratio in the experiment on PCT [1] came to 43.7. In addition, the “PCT+” value with PCT [1] was 35245. Further, the PCT- with PCT [1] was 788. The luminescence value in the experiment on PCT [2] (setting [5]) is on record as 380; with PCT [2] (PCT 1.37 pg/ml), 367; with PCT [2] (PCT 4.12 pg/ml), 422; in the experiment with PCT [2] (PCT 12.35 pg/ml) it was 575; in the experiment with PCT [2] (PCT 37.04 pg/ml), 943; in the experiment with PCT [2] (PCT 111.1 pg/ml) it was 2137. For the same sequence, the luminescence value in the experiment on PCT [2] (PCT 333.3 pg/ml) stood at 5480; in the experiment on PCT [2] (setting [6]), 15181; in the experiment with PCT [3] (PCT 0, background, normalized), 5000; with PCT [3] (setting [7]), 11916; with PCT [3] (setting [8]), 67860; in the experiment with PCT [3] (setting [9]) it was 536667. The luminescence value in the experiment on PCT [3] (setting [10]) was found to be 1936894; with PCT [4] it was 5698. Moreover, the “Signal-to-noise ratio at 1000 pg/ml” value in the experiment on PCT [2] amounted to 40.0; in the experiment with PCT [3] it was 13.6.
As to VEGYRLFEKVW [RB085], in the experiment with PCT [1], the Signal-to-noise ratio amounted to 38.2. The “PCT+” value with PCT [1] is listed as 47227. In the experiment on PCT [1], the PCT- was 1206. Moreover, the luminescence value in the experiment on PCT [2] (setting [5]) is 337; in the experiment with PCT [2] (PCT 1.37 pg/ml), 384; in the experiment on PCT [2] (PCT 4.12 pg/ml), 445; in the experiment on PCT [2] (PCT 12.35 pg/ml) it was 556; with PCT [2] (PCT 37.04 pg/ml) it was 932; with PCT [2] (PCT 111.1 pg/ml) it was 2102. The luminescence value with PCT [2] (PCT 333.3 pg/ml) is listed as 5551; with PCT [2] (setting [6]), 15446; in the experiment on PCT [3] (PCT 0, background, normalized), 5000; with PCT [3] (setting [7]), 11950; with PCT [3] (setting [8]), 69595; in the experiment with PCT [3] (setting [9]), 554514. Further, the luminescence value in the experiment on PCT [3] (setting [10]) stood at 1830312; in the experiment on PCT [4] it was 5486. Moreover, the “Signal-to-noise ratio at 1000 pg/ml” value is 45.8 in the experiment with PCT [2] and 13.9 in the experiment on PCT [3]. In addition, the “signal-to-noise ratios” value with PCT [3] is on record as “higher signal-to-noise ratios”.
